Test results as given in US10105357B2, “Indication of antibiotic drugs for preparation of cancer inhibition pharmaceutical composition” (LAUNX BIOMEDICAL CO., LTD., priority 2014, dated 2018).
Where two headings read alike, the source gives them in different places.

Key:
cancer cell lines = assay: Cell viability analysis (WST-1) on cancer cell lines; assay type: cell-based, human; settings: drug 10 μM, 72 hours, WST-1; Table 3
[1] = test system: HI650 (Lung Adenocarcinoma); assay: Cell viability analysis, lung cancer HI650; assay type: cell-based, human; settings: Homo sapiens, NCI-H1650, 72 h
[2] = test system: A549 (Lung Adenocarcinoma); assay: Cell viability analysis, lung cancer A549; assay type: cell-based, human; settings: Homo sapiens, A549, 72 h
[3] = test system: AGS (Gastric Adenocarcinoma); assay: Cell viability analysis, gastric cancer AGS; assay type: cell-based, human; settings: Homo sapiens, 72 h
[4] = test system: MKN-45 (Gastric Adenocarcinoma); assay: Cell viability analysis, gastric cancer MKN-45; assay type: cell-based, human; settings: Homo sapiens, MKN-45, 72 h
[5] = test system: HepG2 (Hepatocellular Carcinoma); assay: Cell viability analysis, hepatic cancer HepG2; assay type: cell-based, human; settings: Homo sapiens, HepG2, 72 h
[6] = test system: Hep3B (hepatocellular carcinoma); assay: Cell viability analysis, hepatic cancer Hep3B; assay type: cell-based, human; settings: Homo sapiens, Hep3B, 72 h, read-out: The results of antibiotic drug inhibiting cancer cell lines (cell viability analysis), Hep3B
[7] = test system: LoVo (Colorectal Adenocarcinoma); assay: Cell viability analysis, colon cancer LoVo; assay type: cell-based, human; settings: Homo sapiens, LoVo, 72 h
[8] = test system: A375 (Amelanotic Melanoma); assay: Cell viability analysis, skin cancer A375; assay type: cell-based, human; settings: Homo sapiens, A-375, 72 h
[9] = test system: BCC (basal cell carcinoma); assay: Cell viability analysis, skin cancer BCC; assay type: cell-based, human; settings: Homo sapiens, 72 h, read-out: The results of antibiotic drug inhibiting cancer cell lines (cell viability analysis), BCC
[10] = test system: HeLa (Cervix Adenocarcinoma); assay: Cell viability analysis, cervical cancer HeLa; assay type: cell-based, human; settings: Homo sapiens, HeLa, 72 h
[11] = test system: C-33A (Cervical carcinoma); assay: Cell viability analysis, cervical cancer C-33A; assay type: cell-based, human; settings: Homo sapiens, C-33-A, 72 h, read-out: The results of antibiotic drug inhibiting cancer cell lines (cell viability analysis), C-33A
[12] = test system: PC3 (p53−) (Prostate Adenocarcinoma); assay: Cell viability analysis, prostate cancer PC3; assay type: cell-based, human; settings: Homo sapiens, 72 h
[13] = test system: TSGH-8301 (Urinary Bladder Carcinoma); assay: Cell viability analysis, bladder cancer TSGH-8301; assay type: cell-based, human; settings: Homo sapiens, 72 h
T24 = assay: Cell viability analysis, bladder cancer T24; assay type: cell-based, human; settings: Homo sapiens, T-24, 72 h, read-out: The results of antibiotic drug inhibiting cancer cell lines (cell viability analysis), T24
[14] = test system: MCF7 (Mammary Gland, Adenocarcinoma); assay: Cell viability analysis, breast cancer MCF7; assay type: cell-based, human; settings: Homo sapiens, MCF7, 72 h
[15] = test system: MDA-MB-231 (Mammary Gland, Adenocarcinoma); assay: Cell viability analysis, breast cancer MDA-MB-231; assay type: cell-based, human; settings: Homo sapiens, MDA-MB-231, 72 h, read-out: The results of antibiotic drug inhibiting cancer cell lines (cell viability analysis), MDA-MB231
BxPC-3 = assay: Cell viability analysis, pancreatic cancer BxPC-3; assay type: cell-based, human; settings: Homo sapiens, BXPC-3, 72 h, read-out: The results of antibiotic drug inhibiting cancer cell lines (cell viability analysis), BxPC-3
AsPC-1 = assay: Cell viability analysis, pancreatic cancer AsPC-1; assay type: cell-based, human; settings: Homo sapiens, ASPC1, 72 h, read-out: The results of antibiotic drug inhibiting cancer cell lines (cell viability analysis), AsPC-1
NIH: OVCAR-3 = assay: Cell viability analysis, ovarian cancer NIH: OVCAR-3; assay type: cell-based, human; settings: Homo sapiens, OVCAR-3, 72 h, read-out: The results of antibiotic drug inhibiting cancer cell lines (cell viability analysis), NIH-OVCAR-3
TOV-21G = assay: Cell viability analysis, ovarian cancer TOV-21G; assay type: cell-based, human; settings: Homo sapiens, TOV21G, 72 h, read-out: The results of antibiotic drug inhibiting cancer cell lines (cell viability analysis), TOV-21G
U-2OS = assay: Cell viability analysis, osteosarcoma U-2OS; assay type: cell-based, human; settings: Homo sapiens, U2OS, 72 h, read-out: The results of antibiotic drug inhibiting cancer cell lines (cell viability analysis), U2OS
[16] = test system: 786-O (Renal adenocarcinoma); assay: Cell viability analysis, renal cancer 786-O; assay type: cell-based, human; settings: Homo sapiens, 786-0, 72 h, read-out: The results of antibiotic drug inhibiting cancer cell lines (cell viability analysis), 786-O
[17] = test system: HL-60 (Acute Promyelocytic Leukemia); assay: Cell viability analysis, leukemia HL-60; assay type: cell-based, human; settings: Homo sapiens, HL-60, 72 h, read-out: cell viability (survival rate), HL-60, drug 10 μM, 72 hours, WST-1, OD450 nm
[18] = test system: HCT116 (p53+) (Colorectal Carcinoma)
[19] = test system: SAS (Tongue squamous cell carcinoma); assay: Cell viability analysis, tongue cancer SAS; assay type: cell-based, human; settings: Homo sapiens, 72 h, read-out: The results of antibiotic drug inhibiting cancer cell lines (cell viability analysis), SAS
[20] = read-out: The results of antibiotic drug inhibiting cancer cell lines (cell viability analysis), H1650, H1650, repeated experiment
[21] = read-out: cell viability (survival rate), H1650, drug 10 μM, 72 hours, WST-1, OD450 nm
[22] = read-out: The results of antibiotic drug inhibiting cancer cell lines (cell viability analysis), A549, A549, repeated experiment
[23] = read-out: cell viability (survival rate), A549, drug 10 μM, 72 hours, WST-1, OD450 nm
[24] = read-out: The results of antibiotic drug inhibiting cancer cell lines (cell viability analysis), AGS, repeated experiment
[25] = read-out: cell viability (survival rate), AGS, drug 10 μM, 72 hours, WST-1, OD450 nm
[26] = read-out: The results of antibiotic drug inhibiting cancer cell lines (cell viability analysis), MKN-45, MKN-45, repeated experiment
[27] = read-out: cell viability (survival rate), MKN-45, drug 10 μM, 72 hours, WST-1, OD450 nm
[28] = read-out: The results of antibiotic drug inhibiting cancer cell lines (cell viability analysis), HepG2, HepG2, repeated experiment
[29] = read-out: cell viability (survival rate), HepG2, drug 10 μM, 72 hours, WST-1, OD450 nm
[30] = read-out: The results of antibiotic drug inhibiting cancer cell lines (cell viability analysis), LoVo, repeated experiment
[31] = read-out: cell viability (survival rate), LoVo, drug 10 μM, 72 hours, WST-1, OD450 nm
[32] = read-out: The results of antibiotic drug inhibiting cancer cell lines (cell viability analysis), A375, A375, repeated experiment
[33] = read-out: cell viability (survival rate), A375, drug 10 μM, 72 hours, WST-1, OD450 nm
[34] = read-out: The results of antibiotic drug inhibiting cancer cell lines (cell viability analysis), HeLa, repeated experiment
[35] = read-out: cell viability (survival rate), HeLa, drug 10 μM, 72 hours, WST-1, OD450 nm
[36] = read-out: The results of antibiotic drug inhibiting cancer cell lines (cell viability analysis), PC-3, PC-3, repeated experiment
[37] = read-out: cell viability (survival rate), PC3, drug 10 μM, 72 hours, WST-1, OD450 nm
[38] = read-out: The results of antibiotic drug inhibiting cancer cell lines (cell viability analysis), TSGH-8301, TSGH-8301, repeated experiment
[39] = read-out: cell viability (survival rate), TSGH, drug 10 μM, 72 hours, WST-1, OD450 nm
[40] = read-out: The results of antibiotic drug inhibiting cancer cell lines (cell viability analysis), MCF-7, MCF-7, repeated experiment
[41] = read-out: cell viability (survival rate), MCF7, drug 10 μM, 72 hours, WST-1, OD450 nm

## Cc1noc(NS(=O)(=O)c2ccc(N)cc2)c1C [Sulfisoxazole]
Cancer cell lines
  inhibition effect on different cancer cell lines: significant inhibition effect
[1]; [20]
  viability at 10 µM: 75.9%
[1]; [21]
  viability at 10 µM: 73.9%
[2]; [22]
  viability at 10 µM: 105%
[2]; [23]
  viability at 10 µM: 39.4%
[3]; [24]
  viability at 10 µM: 108%
[3]; [25]
  viability at 10 µM: 88.7%
[4]; [26]
  viability at 10 µM: 105%
[4]; [27]
  viability at 10 µM: 48.4%
[5]; [28]
  viability at 10 µM: 122%
[5]; [29]
  viability at 10 µM: 108%
[6]
  viability at 10 µM: 110%
[7]; [30]
  viability at 10 µM: 112%
[7]; [31]
  viability at 10 µM: 68.8%
[8]; [32]
  viability at 10 µM: 107%
[8]; [33]
  viability at 10 µM: 65.5%
[9]
  viability at 10 µM: 102%
[10]; [34]
  viability at 10 µM: 120%
[10]; [35]
  viability at 10 µM: 78.9%
[11]
  viability at 10 µM: 116%
[12]; [36]
  viability at 10 µM: 111%
[12]; [37]
  viability at 10 µM: 36.1%
[13]; [38]
  viability at 10 µM: 105%
[13]; [39]
  viability at 10 µM: 93%
T24
  viability at 10 µM: 90.7%
[14]; [40]
  viability at 10 µM: 106%
[14]; [41]
  viability at 10 µM: 46.1%
[15]
  viability at 10 µM: 104%
BxPC-3
  viability at 10 µM: 67.1%
AsPC-1
  viability at 10 µM: 80.1%
NIH: OVCAR-3
  viability at 10 µM: 108%
TOV-21G
  viability at 10 µM: 84.5%
U-2OS
  viability at 10 µM: 88.6%
[16]
  viability at 10 µM: 93.3%
[17]
  viability at 10 µM: 95.2%
[18]
  viability: 97.9%

## CC1(C)S[C@@H]2[C@H](NC(=O)Cc3ccccc3)C(=O)N2[C@H]1C(=O)O [Benzylpenicillin sodium]
Cancer cell lines
  inhibition effect on different cancer cell lines: significant inhibition effect
[1]; [20]
  viability at 10 µM: 121%
[1]; [21]
  viability at 10 µM: 57.1%
[2]; [22]
  viability at 10 µM: 97.2%
[2]; [23]
  viability at 10 µM: 36.4%
[3]; [24]
  viability at 10 µM: 110%
[3]; [25]
  viability at 10 µM: 54.8%
[4]; [26]
  viability at 10 µM: 124%
[4]; [27]
  viability at 10 µM: 43.1%
[5]; [28]
  viability at 10 µM: 108%
[5]; [29]
  viability at 10 µM: 86.4%
[6]
  viability at 10 µM: 113%
[7]; [30]
  viability at 10 µM: 78.3%
[7]; [31]
  viability at 10 µM: 62.8%
[8]; [32]
  viability at 10 µM: 113%
[8]; [33]
  viability at 10 µM: 51.7%
[9]
  viability at 10 µM: 97.7%
[10]; [34]
  viability at 10 µM: 107%
[10]; [35]
  viability at 10 µM: 57.1%
[11]
  viability at 10 µM: 110%
[12]; [36]
  viability at 10 µM: 106%
[12]; [37]
  viability at 10 µM: 36.1%
[13]; [38]
  viability at 10 µM: 131%
[13]; [39]
  viability at 10 µM: 39.6%
T24
  viability at 10 µM: 108%
[14]; [40]
  viability at 10 µM: 86.9%
[14]; [41]
  viability at 10 µM: 31.3%
[15]
  viability at 10 µM: 94.7%
BxPC-3
  viability at 10 µM: 95.3%
NIH: OVCAR-3
  viability at 10 µM: 110%
TOV-21G
  viability at 10 µM: 112%
[19]
  viability at 10 µM: 67%
U-2OS
  viability at 10 µM: 71.5%
[16]
  viability at 10 µM: 93.2%
[17]
  viability at 10 µM: 86.7%
[18]
  viability: 94%

## C=C1[C@H](CO)[C@@H](O)C[C@@H]1n1cnc2c(=O)[nH]c(N)nc21 [Entecavir hydrate]
Cancer cell lines
  inhibition effect on different cancer cell lines: significant inhibition effect
[1]; [20]
  viability at 10 µM: 84.1%
[1]; [21]
  viability at 10 µM: 80.8%
[2]; [22]
  viability at 10 µM: 104%
[2]; [23]
  viability at 10 µM: 57.4%
[3]; [24]
  viability at 10 µM: 88.7%
[3]; [25]
  viability at 10 µM: 46.4%
[4]; [26]
  viability at 10 µM: 92.5%
[4]; [27]
  viability at 10 µM: 59.7%
[5]; [28]
  viability at 10 µM: 88.9%
[5]; [29]
  viability at 10 µM: 98.8%
[6]
  viability at 10 µM: 90.8%
[7]; [30]
  viability at 10 µM: 96.7%
[7]; [31]
  viability at 10 µM: 91.6%
[8]; [32]
  viability at 10 µM: 89%
[8]; [33]
  viability at 10 µM: 98.6%
[9]
  viability at 10 µM: 69.5%
[10]; [34]
  viability at 10 µM: 76.9%
[10]; [35]
  viability at 10 µM: 99.4%
[11]
  viability at 10 µM: 96.7%
[12]; [36]
  viability at 10 µM: 118%
[12]; [37]
  viability at 10 µM: 81.2%
[13]; [38]
  viability at 10 µM: 103%
[13]; [39]
  viability at 10 µM: 53%
T24
  viability at 10 µM: 96.4%
[14]; [40]
  viability at 10 µM: 92.9%
[14]; [41]
  viability at 10 µM: 58.6%
[15]
  viability at 10 µM: 98.9%
BxPC-3
  viability at 10 µM: 97.2%
AsPC-1
  viability at 10 µM: 98.4%
NIH: OVCAR-3
  viability at 10 µM: 109%
TOV-21G
  viability at 10 µM: 85.5%
U-2OS
  viability at 10 µM: 85.3%
[16]
  viability at 10 µM: 92.7%
[17]
  viability at 10 µM: 74.1%
[18]
  viability: 99.9%
